This passage reports IC50 results from patent US11260049B2, “TRPV4 antagonists” (GlaxoSmithKline Intellectual Property (No. 2) Limited, priority 2016, dated 2022).

Like-named read-outs stand apart in the source and are kept apart here.

The target of this assay is human TRPV4 (Homo sapiens (Human), UniProt Q9HBA0). The experiment in a line: FLIPR assay for hTRPV4 expressed in BHK cells. It counts as cell-based. On the procedure: FLIPR Assay for hTRPV4 Expressed in BHK Cells:
TRPV4 channel activation results in an influx of divalent and monovalent cations including calcium. The resulting changes in intracellular calcium were monitored using a calcium specific fluorescent dye Fluo-4 (MDS Analytical Technologies). BHK/AC9 cells transduced with BacMam virus expressing the human TRPV4 gene at a MOI of 78 were plated in a 384 well poly-D lysine coated plate (15,000 cells/well in 50 μL culture medium containing DMEM/F12 with 15 mM HEPES, 10% FBS, 1% Penicillin-Streptomycin and 1% L-glutamine). Cells were incubated for 24 hours at 37° C. and 5% CO2. Culture medium was then aspirated using a Tecan plate-washer and replaced with 20 μL/well of dye loading buffer: HBSS, 500 μM Brilliant Black (MDS Analytical Technologies), and 2 μM Fluo-4 AM. Dye loaded plates were then incubated in the dark at room temperature for 1˜1.5 hours.

[1] abbreviates: inhibition of Agonist Compound (EC80)-induced calcium signal, BHK/AC9 cells expressing human TRPV4, read-out: IC50.

Chain of human TRPV4 (Q9HBA0 whole entry): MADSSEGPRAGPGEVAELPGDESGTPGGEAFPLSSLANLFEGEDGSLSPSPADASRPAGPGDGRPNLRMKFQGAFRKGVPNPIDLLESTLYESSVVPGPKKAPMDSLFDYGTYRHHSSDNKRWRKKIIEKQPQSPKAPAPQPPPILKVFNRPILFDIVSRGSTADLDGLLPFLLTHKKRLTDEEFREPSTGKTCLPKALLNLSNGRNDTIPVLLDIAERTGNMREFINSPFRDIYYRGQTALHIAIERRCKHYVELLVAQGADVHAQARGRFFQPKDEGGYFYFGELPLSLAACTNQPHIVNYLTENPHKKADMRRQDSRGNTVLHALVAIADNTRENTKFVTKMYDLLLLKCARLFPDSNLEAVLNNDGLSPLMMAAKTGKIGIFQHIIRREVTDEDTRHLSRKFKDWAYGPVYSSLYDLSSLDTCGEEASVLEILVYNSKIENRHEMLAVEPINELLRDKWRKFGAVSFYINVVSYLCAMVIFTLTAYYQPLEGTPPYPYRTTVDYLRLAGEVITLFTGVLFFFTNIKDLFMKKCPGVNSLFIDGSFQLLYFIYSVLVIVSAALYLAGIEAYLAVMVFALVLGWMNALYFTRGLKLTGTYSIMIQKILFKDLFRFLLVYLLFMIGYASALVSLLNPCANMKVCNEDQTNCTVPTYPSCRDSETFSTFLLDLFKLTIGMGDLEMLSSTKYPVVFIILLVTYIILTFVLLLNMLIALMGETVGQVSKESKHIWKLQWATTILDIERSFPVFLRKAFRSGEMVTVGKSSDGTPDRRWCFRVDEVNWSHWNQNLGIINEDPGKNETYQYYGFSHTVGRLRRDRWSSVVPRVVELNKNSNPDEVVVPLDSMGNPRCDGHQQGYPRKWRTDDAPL

`N#Cc1ccc(S(=O)(=O)[C@H]2CN(S(=O)(=O)c3cc(F)c(Cl)cc3Cl)C[C@@]2(O)CO)cc1` [Example 63, 4-(((3S,4R)-1-((2,4-dichloro-5-fluorophenyl)sulfonyl)-4-hydroxy-4-(hydroxymethyl)pyrrolidin-3-yl)sulfonyl)benzonitrile]: the IC50 (as a rule, the concentration needed to halve the response being measured) under setting [1] is 10 to 100 nM.

Consider `N#Cc1ccc(S(=O)(=O)N2C[C@H](S(=O)(=O)c3ccc(Cl)cc3)[C@@](O)(CN)C2)cc1` [Example 127, 4-(((3R,4S)-3-(aminomethyl)-4-((4-chlorophenyl)sulfonyl)-3-hydroxypyrrolidin-1-yl)sulfonyl)benzonitrile], for which the IC50 under setting [1] fell in the range of 10 to 100 nM. Same read-out and setting: then `N#Cc1ccc(S(=O)(=O)N2C[C@H](S(=O)(=O)c3ccc(C(F)(F)F)cn3)[C@](O)(CO)C2)c(Cl)c1` [Example 110, 3-chloro-4-(((3R,4S)-3-hydroxy-3-(hydroxymethyl)-4-((5-(trifluoromethyl)pyridin-2-yl)sulfonyl)pyrrolidin-1-yl)sulfonyl)benzonitrile], with 10 to 100 nM; and `COc1cc(Cl)ccc1S(=O)(=O)N1C[C@H](S(=O)(=O)c2ccc(C#N)cc2)[C@](O)(CO)C1` [Example 51, 4-(((3S,4R)-1-((4-chloro-2-methoxyphenyl)sulfonyl)-4-hydroxy-4-(hydroxymethyl)pyrrolidin-3-yl)sulfonyl)benzonitrile], with 10 to 100 nM; and `N#Cc1ccc(S(=O)(=O)[C@H]2CN(S(=O)(=O)c3ccc(F)cc3C(F)(F)F)C[C@@]2(O)CO)cc1` [Example 29, 4-(((3S,4R)-1-((4-fluoro-2-(trifluoromethyl)phenyl)sulfonyl)-4-hydroxy-4-(hydroxymethyl)pyrrolidin-3-yl)sulfonyl)benzonitrile], with 0.1 to 10 nM.

Turning to `N#Cc1ccc(S(=O)(=O)[C@H]2CN(S(=O)(=O)c3ccc(C(F)(F)F)cc3Cl)C[C@@]2(O)CO)cc1F` [Example 14, 4-(((3S,4R)-1-((2-chloro-4-(trifluoromethyl)phenyl)sulfonyl)-4-hydroxy-4-(hydroxymethyl)pyrrolidin-3-yl)sulfonyl)-2-fluorobenzonitrile], the IC50 under setting [1] was 0.1 to 10 nM. Regarding `N#Cc1ccc(S(=O)(=O)N2C[C@H](S(=O)(=O)c3nccs3)[C@](O)(CO)C2)c(Cl)c1` [Example 68, 3-chloro-4-(((3R,4S)-3-hydroxy-3-(hydroxymethyl)-4-(thiazol-2-ylsulfonyl)pyrrolidin-1-yl)sulfonyl)benzonitrile], the concentration for half-maximal inhibition (IC50) under setting [1] fell in the range of 10 to 100 nM. The same measure, in the same setting: to `O=S(=O)(c1ccc(C(F)(F)F)cc1)[C@H]1CN(S(=O)(=O)c2ccc(C(F)(F)F)cc2Cl)C[C@@]1(O)CO` [Example 96, (3R,4S)-1-((2-chloro-4-(trifluoromethyl)phenyl)sulfonyl)-3-(hydroxymethyl)-4-((4-(trifluoromethyl)phenyl)sulfonyl)pyrrolidin-3-ol] belongs 10 to 100 nM; to `Cc1cc(C#N)ccc1S(=O)(=O)N1C[C@H](S(=O)(=O)c2ccc(C#N)c(F)c2)[C@](O)(CO)C1` [Example 70, 4-(((3S,4R)-1-((4-cyano-2-methylphenyl)sulfonyl)-4-hydroxy-4-(hydroxymethyl)pyrrolidin-3-yl)sulfonyl)-2-fluorobenzonitrile], 0.1 to 10 nM; to `N#Cc1ccc(S(=O)(=O)[C@H]2CN(S(=O)(=O)c3ccccc3Br)C[C@@]2(O)CO)cc1` [Example 33, 4-(((3S,4R)-1-((2-bromophenyl)sulfonyl)-4-hydroxy-4-(hydroxymethyl)pyrrolidin-3-yl)sulfonyl)benzonitrile], 10 to 100 nM. Same read-out and setting: to `N#Cc1ccc(S(=O)(=O)[C@H]2CN(S(=O)(=O)c3ccc(Cl)cc3Cl)C[C@@]2(O)CO)cc1` [Example 82, 4-(((3S,4R)-1-((2,4-dichlorophenyl)sulfonyl)-4-hydroxy-4-(hydroxymethyl)pyrrolidin-3-yl)sulfonyl)benzonitrile] belongs 0.1 to 10 nM; to `O=S(=O)(c1ccc(Cl)cc1)[C@H]1CN(S(=O)(=O)c2ccc(C(F)(F)F)cc2Cl)C[C@@]1(O)CO` [Example 97, (3R,4S)-1-((2-chloro-4-(trifluoromethyl)phenyl)sulfonyl)-4-((4-chlorophenyl)sulfonyl)-3-(hydroxymethyl)pyrrolidin-3-ol], 10 to 100 nM. Same read-out and setting: to `N#Cc1ccc(S(=O)(=O)N2C[C@H](S(=O)(=O)c3ccc(Cl)cc3)[C@](O)(CO)C2)c(Br)c1` [Example 38, 3-bromo-4-(((3R,4S)-4-((4-chlorophenyl)sulfonyl)-3-hydroxy-3-(hydroxymethyl)pyrrolidin-1-yl)sulfonyl)benzonitrile] belongs 0.1 to 10 nM; to `O=S(=O)(c1ccc(Cl)cc1)[C@H]1CN(S(=O)(=O)c2ccc(Cl)cc2Cl)C[C@@]1(O)CO` [Example 18, (3R,4S)-4-((4-chlorophenyl)sulfonyl)-1-((2,4-dichlorophenyl)sulfonyl)-3-(hydroxymethyl)pyrrolidin-3-ol], 10 to 100 nM.

Turning to `N#Cc1cc(C(F)(F)F)ccc1S(=O)(=O)N1C[C@H](S(=O)(=O)c2ccc(Cl)cc2)[C@](O)(CO)C1` [Example 117, 2-(((3R,4S)-4-((4-chlorophenyl)sulfonyl)-3-hydroxy-3-(hydroxymethyl)pyrrolidin-1-yl)sulfonyl)-5-(trifluoromethyl)benzonitrile], the IC50 under setting [1] was 0.1 to 10 nM. Same read-out and setting: to `N#Cc1ccccc1S(=O)(=O)N1C[C@H](S(=O)(=O)c2ccc(C(F)(F)F)cc2)[C@](O)(CO)C1` [Example 53, 2-(((3R,4S)-3-hydroxy-3-(hydroxymethyl)-4-((4-(trifluoromethyl)phenyl)sulfonyl)pyrrolidin-1-yl)sulfonyl)benzonitrile] belongs 10 to 100 nM; to `N#Cc1ccc(S(=O)(=O)[C@H]2CN(S(=O)(=O)c3ccc(Cl)cc3Br)C[C@@]2(O)CO)cc1` [Example 59, 4-(((3S,4R)-1-((2-bromo-4-chlorophenyl)sulfonyl)-4-hydroxy-4-(hydroxymethyl)pyrrolidin-3-yl)sulfonyl)benzonitrile], 0.1 to 10 nM. On the same count and under the same terms, then `N#Cc1cc(C(F)(F)F)ccc1S(=O)(=O)N1C[C@H](S(=O)(=O)c2ccc(F)c(F)c2)[C@](O)(CO)C1` [Example 93, 2-(((3R,4S)-4-((3,4-difluorophenyl)sulfonyl)-3-hydroxy-3-(hydroxymethyl)pyrrolidin-1-yl)sulfonyl)-5-(trifluoromethyl)benzonitrile], with 10 to 100 nM; and `O=S(=O)(c1ccc(Cl)c(F)c1)[C@H]1CN(S(=O)(=O)c2ccc(Cl)cc2Cl)C[C@@]1(O)CO` [Example 88, (3R,4S)-4-((4-chloro-3-fluorophenyl)sulfonyl)-1-((2,4-dichlorophenyl)sulfonyl)-3-(hydroxymethyl)pyrrolidin-3-ol], with 0.1 to 10 nM.

For the compound `C[C@@H](O)[C@]1(O)CN(S(=O)(=O)c2ccc(C#N)cc2Cl)C[C@@H]1S(=O)(=O)c1ccc(Cl)cn1` [Example 120, 3-chloro-4-(((3R,4S)-4-((5-chloropyridin-2-yl)sulfonyl)-3-hydroxy-3-((R)-1-hydroxyethyl)pyrrolidin-1-yl)sulfonyl)benzonitrile], the IC50 under setting [1] lay within 0.1 to 10 nM. In the case of `N#Cc1ccc(S(=O)(=O)N2C[C@H](S(=O)(=O)c3ccc(Cl)cn3)[C@](O)(CO)C2)c(Cl)c1` [Example 1, 3-chloro-4-(((3R,4S)-4-((5-chloropyridin-2-yl)sulfonyl)-3-hydroxy-3-(hydroxymethyl)pyrrolidin-1-yl)sulfonyl)benzonitrile], the 50% inhibitory concentration (IC50) is 5 nM (at least one set of experimental runs, TRPV4 FLIPR assay, read-out: average IC50) and 0.1 to 10 nM under setting [1]. Consider `COc1cc(C#N)ccc1S(=O)(=O)N1C[C@H](S(=O)(=O)c2ccc(C(F)(F)F)cc2)[C@](O)(CO)C1` [Example 56, 4-(((3R,4S)-3-hydroxy-3-(hydroxymethyl)-4-((4-(trifluoromethyl)phenyl)sulfonyl)pyrrolidin-1-yl)sulfonyl)-3-methoxybenzonitrile], for which the IC50 under setting [1] was 10 to 100 nM. The same measure, in the same setting: to `N#Cc1ccc(S(=O)(=O)N2C[C@H](S(=O)(=O)c3ccc(C#N)c(F)c3)[C@](O)(CO)C2)c(Cl)c1` [Example 10, 4-(((3S,4R)-1-((2-chloro-4-cyanophenyl)sulfonyl)-4-hydroxy-4-(hydroxymethyl)pyrrolidin-3-yl)sulfonyl)-2-fluorobenzonitrile] belongs 0.1 to 10 nM; to `CC(C)c1ccc(S(=O)(=O)[C@H]2CN(S(=O)(=O)c3ccc(C#N)cc3Cl)C[C@@]2(O)CO)cc1` [Example 105, 3-chloro-4-(((3R,4S)-3-hydroxy-3-(hydroxymethyl)-4-((4-isopropylphenyl)sulfonyl)pyrrolidin-1-yl)sulfonyl)benzonitrile], 10 to 100 nM; to `N#Cc1ccc(S(=O)(=O)[C@H]2CN(S(=O)(=O)c3ccc(C(F)(F)F)cc3Cl)C[C@]2(O)CO)cc1F` [Example 7, 4-(((3S,4S)-1-((2-chloro-4-(trifluoromethyl)phenyl)sulfonyl)-4-hydroxy-4-(hydroxymethyl)pyrrolidin-3-yl)sulfonyl)-2-fluorobenzonitrile], 10 to 100 nM. Same read-out and setting: then `N#Cc1ccc(S(=O)(=O)N2C[C@H](S(=O)(=O)c3ccc(Cl)c(F)c3)[C@](O)(CO)C2)c(Cl)c1` [Example 107, 3-chloro-4-(((3R,4S)-4-((4-chloro-3-fluorophenyl)sulfonyl)-3-hydroxy-3-(hydroxymethyl)pyrrolidin-1-yl)sulfonyl)benzonitrile], with 0.1 to 10 nM; and `N#Cc1ccc(S(=O)(=O)N2C[C@H](S(=O)(=O)c3ccc(Cl)cn3)[C@@](O)(CO)C2)c(Cl)c1` [Example 109, 3-chloro-4-(((3S,4S)-4-((5-chloropyridin-2-yl)sulfonyl)-3-hydroxy-3-(hydroxymethyl)pyrrolidin-1-yl)sulfonyl)benzonitrile], with 10 to 100 nM.
